Read-outs that look alike come from different tables or passages of the source.
Assays:
[1] = brain exposure of MN-08 in rats; type: in vivo, SD rats; conditions: for concentration at 0.5 h / concentration at 1 h / concentration at 24 h: both sexes, Sprague-Dawley, rat, oral
Procedure: Bio-distribution studies were carried out in healthy adult rats (3 males and 3 females). All rats were administered MN-08 at a single dose of 12 mg/kg by gastric gavage. Brain and plasma were collected at 0.5, 1 and 24 h post dosing. Tissue samples were homogenized and then centrifuged at 12000 rpm for 10 min. The supernatants were injected into the LC-MS/MS system for analysis of MN-08 concentration according to the method previously described (Tian et al., 2016).

[2] = tested on: cerebellar granule neurons (CGNs); experiment: MTT cell viability, glutamate-induced excitotoxicity in CGNs; type: cell-based, rat; conditions: MN‐08 1–50 µM for 2 h, then 100 μM glutamate 24 h
Procedure: Excessive glutamate‐induced excitotoxicity might cause dysfunctions of cellular pathways, subsequently resulting in synaptic dysfunctions and neuronal loss. To evaluate the neuroprotective effects of MN‐08 against excitotoxicity, cerebellar granule neurons (CGNs) were treated with MN‐08 at the concentrations from 1 to 50 µM or memantine from 1 to 10 μM for 2 h, and then exposed to 100 μM glutamate for 24 h. […] Similarly, in APP/PS1 mice, MN‐08 prevented neuronal loss in the hippocampus by upregulating the expression ratio of Bcl‐2/Bax and downregulating the expression ratio of cleaved Caspase‐3 to Caspase‐3 (Figure S6).
CGNs were prepared from the 8-day-old Sprague–Dawley rats as described in our previous publication (Li et al., 2005). Briefly, animals were anesthetized and sacrificed, and their cerebella were collected. […]
Neurotoxicity was assessed using the tetrazolium salt 3-(4,5-dimethylthiazol-2-yl)-2,5- diphenyltetrazolium bromide dye (MTT) assay as previous publication (Luo et al., 2010). […] Cell viability was evaluated by observing colorimetric changes using a CLARIOstar plus Microplate Reader (BMG Labtech, Ortenberg, Germany) at a test wavelength of 570 nm with 655 nm as a reference wavelength. Data were expressed as a percentage of control cultures.

## CCC12CC3CC(N)(C1)CC(CO[N+](=O)[O-])(C3)C2 (stereo not drawn) [MN‐08]
[1]
  concentration in brain tissue relative to plasma: much higher than that in the plasma
[1]; 12 mg/kg gastric gavage
  blood‐brain barrier penetration: readily penetrates the blood‐brain barrier
[1]; 12 mg/kg gastric gavage, 0.5 h, 12 mg/kg
  mean concentration in brain: 5793 ± 1033 ng/g
[1]; 12 mg/kg gastric gavage, 1 h, 12 mg/kg
  mean concentration in brain: 10952 ± 3236 ng/g
[1]; 12 mg/kg gastric gavage, 24 h, 12 mg/kg
  mean concentration in brain: 1661 ± 183.4 ng/g
[1]; brain, 12 mg/kg gastric gavage, 0.5 h, read-out: mean concentration in brain
  concentration at 0.5 h: 5790 ng/g
[1]; brain, 12 mg/kg gastric gavage, 1 h, read-out: mean concentration in brain
  concentration at 1 h: 11000 ng/g
[1]; brain, 12 mg/kg gastric gavage, 24 h, read-out: mean concentration in brain
  concentration at 24 h: 1660 ng/g
[1]; 12 mg/kg, 0.5 h, assuming 1 g brain tissue is 1 ml, read-out: concentration in the brain
  concentration at 0.5 h: ~19.9 µM
[1]; 12 mg/kg, 1 h, assuming 1 g brain tissue is 1 ml, read-out: concentration in the brain
  concentration at 1 h: ~37.7 µM
[1]; 12 mg/kg, 24 h, assuming 1 g brain tissue is 1 ml, read-out: concentration in the brain
  concentration at 24 h: ~5.71 µM
[1]; plasma, 12 mg/kg gastric gavage, 0.5 h, read-out: mean concentration in plasma
  concentration at 0.5 h: 781 ± 99 ng/mL
[1]; plasma, 12 mg/kg gastric gavage, 1 h, read-out: mean concentration in plasma
  concentration at 1 h: 726 ± 141 ng/mL
[1]; plasma, 12 mg/kg gastric gavage, 24 h, read-out: mean concentration in plasma
  concentration at 24 h: 73.4 ± 23.8 ng/mL
[2]
  protection against glutamate‐induced excitotoxicity (MTT): concentration‐dependently protect

From paper PMC8208785, “Therapeutic efficacy of novel memantine nitrate MN‐08 in animal models of Alzheimer’s disease” (Aging Cell, 2021)
